In article PMC5234776, “Study of the Antimicrobial Activity of Tilapia Piscidin 3 (TP3) and TP4 and Their Effects on Immune Functions in Hybrid Tilapia (Oreochromis spp.)” (PLoS ONE, 2017):
Like-named read-outs stand apart in the source and are kept apart here. Peptide text beside a SMILES is read from it.

Legend:
in vivo = experiment: in vivo; set-up: species or system tilapia (Oreochromis hybrids, Tilapia spp.); settings: male, iv, 0.2 mg/kg
Protocol: The peptide half-life of TP3 and TP4 were investigated in male tilapia (Oreochromis hybrids, Tilapia spp., with a mean body length of 32.33±1.5 cm and a mean body weight of 1117±78.2 g) after intravenous administration of a single dose of 0.2 mg/kg of peptide. The TP3 and TP4 concentrations in serum samples were determined at 10, 30, 60, 120, 180, 240, 300, and 360 minutes for TP3 and at 10, 60, 120, 180, 240, 300, and 360 minutes after dosing for TP4. At each sample collection time point, we anesthetized three fish and collected their blood. The blood was centrifuged to obtain fish serum, which was assessed by liquid chromatography-mass spectrometry/mass spectrometry (LC-MS/MS) at Mission Biotech (Taipei, Taiwan).

tilapia = experiment: Toxicity of peptide alone, tilapia survival; format: in vivo, tilapia (Oreochromis spp.); settings: abdominal cavity, no infection, seven days (S2 Fig)
Protocol: The antimicrobial activities of TP3 and TP4 peptides were analyzed in tilapia infected with lethal amounts of bacteria. Different amounts of V. vulnificus were injected into the abdominal cavities of the fish, and survival rates were recorded as cumulative percentages (S1 Fig). To determine whether TP3 and TP4 had any toxic effects on the tilapia, we injected different doses of TP3 and TP4 (0.1, 1, 10, 20, 30, 40, or 50 μg/fish) into the abdominal cavity and recorded the cumulative survival percentage of the fish (S2 Fig). We also co-treated tilapia with different doses (0.1, 1, 10, 20 μg/fish) of TP3 or TP4 combined with 2x10^4 CFU of V. vulnificus to evaluate tilapia survival following treatment. […] After 14, 21, or 28 days following the first co-treatment with TP3, the tilapia that survived in the 20 μg/fish TP3 experimental group were injected with a second dose of 2x10^4 CFU of V. vulnificus, and the survival rates were measured for another seven days. […] In the co-treatment experiments, at 14, 21, or 28 days after the first co-treatment with TP4, the surviving tilapia in the 20 μg/fish TP4 experimental group received a second injection of 2x10^4 CFU of V. vulnificus, and the survival rates were measured for another seven days.
Supplementary file pone.0169678.s002.pdf: S2 Fig Determination of tilapia survival rates seven days after injection with different concentrations of TP3 or TP4. (a) The survival rates of tilapia injected with TP3 at a dose of 0.1 μg/fish, 1 μg/fish, or 10 μg/fish. (b) The percentage of tilapia surviving after injection with TP4 at 0.1 μg/fish, 1 μg/fish, or 10 μg/fish. (c) The percentage of tilapia surviving after injection with TP3 at 20 μg/fish, 30 μg/fish, 40 μg/fish, or 50 μg/fish. (d) The percentage of tilapia surviving after injection with TP4 at 20 μg/fish, 30 μg/fish, 40 μg/fish, or 50 μg/fish. The control group (control) was injected with PBS alone. (PDF) Click here for additional data file.

V. vulnificus [1] = experiment: MIC, broth microdilution (NCCLS); format: cell-based, Vibrio vulnificus; settings: 28°C
Protocol: (§1) We determined the MICs of TP3, TP4, kanamycin, and ampicillin against V. vulnificus using a broth microdilution method in accordance with NCCLS guidelines. To measure the killing efficiencies of TP3 and TP4 against V. vulnificus, we prepared TP3 or TP4 solutions at MIC concentrations of 0.5×, 1×, and 2× and these solutions with equal volumes of V. vulnificus (1×10^6 CFU/ml) to each well of a 96-well plate. The plates were incubated at 28°C for 0, 60, 120, 180, 360, 540, 720, or 1440 minutes, and after the incubation period, 50 μL of each bacterial solution were plated on a TCBS plate to obtain viable cell counts. Broth grown in the absence of peptides was used as a negative control. The results were determined using triplicate independent experiments.

V. vulnificus [2] = experiment: Synergy of TP3 or TP4 with ampicillin or kanamycin; format: cell-based, Vibrio vulnificus; settings: V. vulnificus 5×10^3 CFU/ml, 28°C, 720 minutes, 600-nm absorbance
Protocol: We used the co-treatment method to test combinations of TP3 or TP4 with ampicillin or kanamycin to identify synergistic effects. […] The plates were incubated at 28°C for 720 minutes, and after the incubation period, the concentrations of the bacterial solutions were detected using a spectrometer (600-nm absorbance).

V. vulnificus [3] = experiment: microbe, parasite or virus in culture; format: cell-based, Vibrio vulnificus
Protocol: (§2) To understand the effects of pH on TP3 or TP4, the reagents were dissolved in ddH2O, 1 M HCl or 1 M NaOH to obtain solutions with different pH values. For the temperature-dependent functional study, the TP3 or TP4 was added to a solution in a water bath (Basic life, model BL3002, Taiwan) and incubated for 60 minutes at different temperatures (40, 60, 80, or 100°C). To evaluate the effects of TP3 and TP4 on pepsin and trypsin function, each peptide was incubated for 10 or 30 minutes with different concentrations of pepsin or trypsin (0.1, 1, or 10 μg/ml), and we determined the MIC values after incubating these solutions with cells at 28°C for 720 minutes, according to a previously described MIC experimental protocol.

V. vulnificus [4] = experiment: microbe, parasite or virus in culture; format: cell-based, Vibrio vulnificus; settings: V. vulnificus
Protocol: as §1
First, we determined the minimum MICs and minimum bactericidal concentrations (MBCs) of TP3 or TP4 against V. vulnificus.

V. vulnificus [5] = experiment: microbe, parasite or virus in culture; format: cell-based, Vibrio vulnificus; remark: listed apart in the source
Protocol: as §2, with “[…],” for “and we determined the MIC values after incubating these solutions with cells at 28°C for 720 minutes,”

V. vulnificus [6] = experiment: Membrane perturbation, NPN uptake; format: cell-based, Vibrio vulnificus; settings: 1×10^6 CFU/ml, 30 minutes, 40 μmol/L NPN; kanamycin: slight increase only
Protocol: We used previously reported methods for the membrane perturbation assay. Briefly, a single colony of V. vulnificus was cultured in TSB medium for 480 minutes at 28°C, and the adjusted culture (1×10^6 CFU/ml) was aliquoted into different tubes with or without TP4 or TP3. After incubating the cells for 30 minutes, we added 40 μmol/L 1-N-phenylnaphthylamine (NPN) and continued to incubate the cells. Tubes containing PBS with NPN and bacterial cells with NPN served as controls. The NPN fluorescence intensity was detected using a fluorescence ELISA reader. All experiments were performed in triplicate, and the results are expressed as means with standard errors (SE).

[7] = agent incubated 60 minutes at 60°C
[8] = agent incubated 60 minutes at 80°C
[9] = agent incubated 60 minutes at 100°C
[10] = agent dissolved in pH = 4 solution
[11] = agent dissolved in pH = 6 solution
[12] = agent dissolved in pH = 8 solution
[13] = agent dissolved in pH = 10 solution
[14] = agent dissolved in pH = 12 solution
[15] = agent incubated 60 minutes at 40°C

CC[C@H](C)[C@H](NC(=O)[C@H](C)NC(=O)[C@H](CCCCN)NC(=O)CNC(=O)[C@H](C)NC(=O)[C@H](CO)NC(=O)[C@H](Cc1ccccc1)NC(=O)[C@H](CC(C)C)NC(=O)CNC(=O)CNC(=O)[C@@H](NC(=O)[C@@H](NC(=O)[C@H](Cc1cnc[nH]1)NC(=O)[C@H](Cc1cnc[nH]1)NC(=O)[C@@H](NC(=O)[C@@H](N)Cc1ccccc1)[C@@H](C)CC)[C@@H](C)CC)[C@@H](C)CC)C(=O)N[C@@H](Cc1cnc[nH]1)C(=O)N[C@@H](CCCNC(=N)N)C(=O)N[C@@H](CC(C)C)C(=O)N[C@H](C(=O)N[C@@H](CCCNC(=N)N)C(=O)N[C@@H](CCCNC(=N)N)C(=O)N[C@@H](CCCNC(=N)N)C(=O)N[C@@H](CCCNC(=N)N)C(=O)N[C@@H](CCCNC(=N)N)C(=O)O)[C@@H](C)CC [TP4, tilapia piscidin 4] (H-FIHHIIGGLFSAGKAIHRLIRRRRR-OH)
30.0%: percent survival after injection of peptide only (tilapia; 50 μg/fish)
63.3%: percent survival after injection of peptide only (tilapia; 40 μg/fish)
1 h: half-life (in vivo)
56.7%: percent survival after injection of peptide only (tilapia; 30 μg/fish)
70.0%: percent survival after injection of peptide only (tilapia; 20 μg/fish)

CC1(C)S[C@@H]2[C@H](NC(=O)[C@H](N)c3ccccc3)C(=O)N2[C@H]1C(=O)O [ampicillin, reference compound]
very stable: thermostability by MIC and MBC values (V. vulnificus [5]; from 40°C to 100°C, in words)
halved: change of the MIC of the antibiotic in combination with TP3 or TP4 (V. vulnificus [2])
15.6 µg/mL: MBC (V. vulnificus [3]; Vibrio vulnificus, agent dissolved in pH = 12 solution, read-out: MBC) | MIC (V. vulnificus [3]; Vibrio vulnificus, agent dissolved in pH = 12 solution, read-out: MIC)
3.91 µg/mL: MIC (V. vulnificus [1]; Vibrio vulnificus, read-out: MIC) | MBC (V. vulnificus [4]; Vibrio vulnificus, read-out: MBC)
3.9 µg/mL: MIC (V. vulnificus [1]) | MBC (V. vulnificus [3]; Vibrio vulnificus, agent dissolved in pH = 4 solution, read-out: MBC) | MIC (V. vulnificus [3]; Vibrio vulnificus, agent dissolved in pH = 4 solution, read-out: MIC) | MBC (V. vulnificus [3]; Vibrio vulnificus, agent dissolved in pH = 6 solution, read-out: MBC) | MIC (V. vulnificus [3]; Vibrio vulnificus, agent dissolved in pH = 6 solution, read-out: MIC) | MBC (V. vulnificus [3]; Vibrio vulnificus, agent dissolved in pH = 8 solution, read-out: MBC) | MIC (V. vulnificus [3]; Vibrio vulnificus, agent dissolved in pH = 8 solution, read-out: MIC) | MBC (V. vulnificus [3]; Vibrio vulnificus, agent dissolved in pH = 10 solution, read-out: MBC) | MIC (V. vulnificus [3]; Vibrio vulnificus, agent dissolved in pH = 10 solution, read-out: MIC) | MBC (V. vulnificus [3]; Vibrio vulnificus, pH 7, Control of the pH series (pH 7), read-out: MBC) | MIC (V. vulnificus [3]; Vibrio vulnificus, pH 7, Control of the pH series (pH 7), read-out: MIC) | MBC (V. vulnificus [4]) | MBC (V. vulnificus [5]; Vibrio vulnificus, 1 h, agent incubated 60 minutes at 40°C, read-out: MBC) | MIC (V. vulnificus [5]; Vibrio vulnificus, 1 h, agent incubated 60 minutes at 40°C, read-out: MIC) | MBC (V. vulnificus [5]; Vibrio vulnificus, RT, read-out: MBC) | MIC (V. vulnificus [5]; Vibrio vulnificus, RT, read-out: MIC) | MBC (V. vulnificus [5]; [7]) | MIC (V. vulnificus [5]; [7]) | MBC (V. vulnificus [5]; [8]) | MIC (V. vulnificus [5]; [8]) | MBC (V. vulnificus [5]; [9]) | MIC (V. vulnificus [5]; [9])

NC[C@H]1O[C@H](O[C@H]2[C@H](O)[C@@H](O[C@H]3O[C@H](CO)[C@@H](O)[C@H](N)[C@H]3O)[C@H](N)C[C@@H]2N)[C@H](O)[C@@H](O)[C@@H]1O [kanamycin, reference compound]
halved: change of the MIC of the antibiotic in combination with TP3 or TP4 (V. vulnificus [2])
62.5 µg/mL: MBC (V. vulnificus [5]; [9]) | MIC (V. vulnificus [5]; [9])
250 µg/mL: MBC (V. vulnificus [3]; [14]) | MIC (V. vulnificus [3]; [14])
100 µg/mL: concentration that increased NPN fluorescence (V. vulnificus [6])
31.2 µg/mL: MIC (V. vulnificus [1]) | MBC (V. vulnificus [3]; Control of the pH series (pH 7)) | MBC (V. vulnificus [3]; [10]) | MIC (V. vulnificus [3]; [10]) | MBC (V. vulnificus [3]; [11]) | MIC (V. vulnificus [3]; [11]) | MBC (V. vulnificus [3]; [12]) | MIC (V. vulnificus [3]; [12]) | MBC (V. vulnificus [3]; [13]) | MIC (V. vulnificus [3]; [13]) | MBC (V. vulnificus [4]) | MBC (V. vulnificus [5]; RT) | MIC (V. vulnificus [5]; RT) | MBC (V. vulnificus [5]; [15]) | MIC (V. vulnificus [5]; [15]) | MBC (V. vulnificus [5]; [7]) | MIC (V. vulnificus [5]; [7]) | MBC (V. vulnificus [5]; [8]) | MIC (V. vulnificus [5]; [8])
